Results on 11 compounds are retold here after article PMC2834880 (International journal of biological macromolecules, 2010).

“Also recorded” adds a separate entry of the source. Where two headings read alike, the source gives them in different places. Where no end group is shown, it is not given here.

The target of test [1] is purified F1 and membrane bound F1Fo E. coli ATP synthase (Escherichia coli, UniProt P0ABB4). The experiment in a line: biochemical.
In test [2] the test system is wild-type E. coli strain pBWU13.4/DK. The test is classed as cell-based, Escherichia coli.
Test [3] relates to E. coli strain pBWU13.4/DK8. In kind it is cell-based, Escherichia coli.
Where [4] appears, read: succinate plates, limiting glucose, or LB media.

Chain of purified F1 and membrane bound F1Fo E. coli ATP synthase (P0ABB4 whole entry, looked up): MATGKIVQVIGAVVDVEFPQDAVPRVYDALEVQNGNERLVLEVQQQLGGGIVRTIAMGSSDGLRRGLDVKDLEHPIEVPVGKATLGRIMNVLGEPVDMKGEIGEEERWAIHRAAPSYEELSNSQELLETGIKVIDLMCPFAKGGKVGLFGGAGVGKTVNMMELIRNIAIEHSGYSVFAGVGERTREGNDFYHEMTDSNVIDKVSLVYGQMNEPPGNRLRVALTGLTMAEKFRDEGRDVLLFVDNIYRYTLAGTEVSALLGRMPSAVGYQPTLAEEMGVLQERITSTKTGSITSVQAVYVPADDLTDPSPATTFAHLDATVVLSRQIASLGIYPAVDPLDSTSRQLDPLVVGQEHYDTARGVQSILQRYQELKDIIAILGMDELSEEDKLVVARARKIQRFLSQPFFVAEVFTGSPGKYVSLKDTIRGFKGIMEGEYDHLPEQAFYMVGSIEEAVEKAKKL

For the compound Ascaphin-8, in test [1], the “ATPase inhibition (%)” value worked out at 59% and the “residual ATPase activity at maximal inhibition” value is on record as ~ 41%. In addition, the “growth of E. coli in presence of peptide” value in test [2] is reported as “no growth; also recorded: abrogated growth”.
Consider Caerin 1.9, for which, in test [1], the “ATPase inhibition (%)” value turned out to be 52% and the “maximal inhibition of ATPase activity” value is on record as ~ 52%.
AIGSILGALAKGLPTLISWIKNR [MRP] came in with an IC50 in test [1] of roughly 4.77 µM.
For the compound “Caerin 1.8: amphibian antimicrobial peptide, Litoria chloris, 24 residues (GLFKVLGSVAKHLLPHVVPVIAEK)”, the “Growth yield on limiting glucose (%)” value in test [3] was 99%. The “growth of E. coli in presence of peptide” value in test [2] (succinate plates, limiting glucose, or LB media, listed as carein 1.8) is recorded as “did not affect growth”.
As to Dermaseptin, in test [1], the “ATPase inhibition (%)” value was found to be 26% and the “residual ATPase activity at maximal inhibition” value is listed as ~ 74%. The “growth of E. coli in presence of peptide” value in test [2] is reported as “no growth; also recorded: abrogated growth”.
In test [1], `CC[C@H](C)[C@H](NC(=O)CN)C(=O)NCC(=O)N[C@@H](C)C(=O)N[C@H](C(=O)N[C@@H](CC(C)C)C(=O)N[C@@H](CCCCN)C(=O)N[C@H](C(=O)N[C@@H](CC(C)C)C(=O)N[C@H](C(=O)N[C@H](C(=O)NCC(=O)N[C@@H](CC(C)C)C(=O)N1CCC[C@H]1C(=O)N[C@@H](C)C(=O)N[C@@H](CC(C)C)C(=O)N[C@H](C(=O)N[C@@H](CO)C(=O)N[C@@H](Cc1c[nH]c2ccccc12)C(=O)N[C@H](C(=O)N[C@@H](CCCCN)C(=O)N[C@@H](CCCNC(=N)N)C(=O)N[C@@H](CCCCN)C(=O)N[C@@H](CCCNC(=N)N)C(=O)N[C@@H](CCC(N)=O)C(=O)N[C@@H](CCC(N)=O)C(N)=O)[C@@H](C)CC)[C@@H](C)CC)[C@@H](C)O)[C@@H](C)O)C(C)C)C(C)C` [Melittin-NH2, reference compound] had an IC50 of roughly 4.68 µM.
With “Aurein 2.2: amphibian antimicrobial peptide, Litoria aurea, 16 residues (GLFDIVKKVVGALGSL-NH2)”, in test [1] (Leu-13 (aurein 2.2) instead of Ile-13 (aurein 2.3)), the “more inhibition of ATPase than aurein 2.3” value was ~ 40%. Moreover, the “Growth yield on limiting glucose (%)” value in test [3] worked out at 12%. Besides, the “growth of E. coli in presence of peptide” value in test [2] (setting [4]) was “no growth; also recorded: abrogated growth”.
For the compound “XT-7: amphibian antimicrobial peptide, Xenopus tropicalis, 18 residues (GLLGPLLKIAAKVGSNLL)”, in test [3], the “Growth yield on limiting glucose (%)” value is recorded as 89%. The “growth of E. coli in presence of peptide” value in test [2] (setting [4]) is given as “did not affect growth”.
In the case of “Aurein 2.3: amphibian antimicrobial peptide, Litoria aurea, 16 residues (GLFDIVKKVVGAIGSL-NH2)”, in test [3], the “Growth yield on limiting glucose (%)” value is recorded as 24%. The “growth of E. coli in presence of peptide” value in test [2] (setting [4]) was “no growth; also recorded: abrogated growth”.
For Magainin II, in test [1], the “ATPase inhibition (%)” value was 20% and the “maximal inhibition of ATPase activity” value is recorded as ~ 20%. Besides, the “growth of E. coli in presence of peptide” value in test [2] is “did not affect growth”.
In the case of Citropin 1.1, in test [1], the “ATPase inhibition (%)” value turned out to be 57% and the “residual ATPase activity at maximal inhibition” value is reported as ~ 43%. The “growth of E. coli in presence of peptide” value in test [2] is recorded as “no growth; also recorded: abrogated growth”.

Broadly, the IC50 is the concentration that inhibits the measured activity by half. A lower IC50 goes with greater potency in that assay.
